Reference: ChEMBL document CHEMBL1201862, “PubChem BioAssay data set” (2004)
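How tested: cells in 96-well plates exposed to compound for 48 hours at five concentrations. Abbreviation: GI50, concentration required for 50% inhibition of growth.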 Activity calls are given as the source filed them. No stated cut-off is given here; in the data, active = GI50 up to about 1.1 µM and inactive = higher.

How the values were obtained:
Experiment in all cases: inhibition of tumour cell growth, NCI panel, 48 h
[1] = tested on: MCF7
[2] = tested on: UO-31
[3] = tested on: A549
[4] = tested on: RPMI-8226
[5] = tested on: HCT-15
[6] = tested on: NCI-H522
[7] = tested on: M19-MEL
[8] = tested on: K562
[9] = tested on: COLO 205
[10] = tested on: SF-295
[11] = tested on: KM12
[12] = tested on: SW-620
[13] = tested on: OVCAR-8
[14] = tested on: NCI-H460
[15] = tested on: CAKI-1
[16] = tested on: DLD-1
[17] = tested on: Malme-3M
[18] = tested on: HOP-18
[19] = tested on: A498
[20] = tested on: SK-OV-3
[21] = tested on: UACC-257
[22] = tested on: SN12C
[23] = tested on: SNB-78
[24] = tested on: OVCAR-4
[25] = tested on: SNB-19
[26] = tested on: DMS-273
[27] = tested on: SF-268
[28] = tested on: HCT-116
[29] = tested on: HOP-92
[30] = tested on: EKVX
[31] = tested on: IGROV-1
[32] = tested on: LOX IMVI
[33] = tested on: KM-20L2
[34] = tested on: U-251
[35] = tested on: XF498
[36] = tested on: HCC 2998
[37] = tested on: CCRF-CEM
[38] = tested on: SK-MEL-5
[39] = tested on: OVCAR-3
[40] = tested on: HT-29
[41] = tested on: RXF 393
[42] = tested on: NCI-H226
[43] = tested on: SK-MEL-28
[44] = tested on: UACC-62
[45] = tested on: DMS-114
[46] = tested on: MOLT-4
[47] = tested on: SK-MEL-2
[48] = tested on: HL-60
[49] = tested on: SNB-75
[50] = tested on: SF-539
[51] = tested on: NCI/ADR-RES
[52] = tested on: OVCAR-5
[53] = tested on: NCI-H23
[54] = tested on: LXFL 529
[55] = tested on: M14
[56] = tested on: TK-10
[57] = tested on: SR
[58] = tested on: HOP-62
[59] = tested on: 786-0
[60] = tested on: ACHN

Nc1ccn(C2OC(COP(=O)(O)Oc3ccccc3)C(O)C2O)c(=O)n1 (centres undefined)
GI50 [1]: 13 µM (inactive)
GI50 [2]: 30.6 µM (inactive)
GI50 [3]: 3.73 µM (inactive)
GI50 [4]: > 100 µM (inactive)
GI50 [5]: > 60 µM
GI50 [6]: 16.6 µM (inactive)
GI50 [7]: 50.2 µM (inactive)
GI50 [8]: > 70.6 µM (inactive)
GI50 [9]: 61.9 µM (inactive)
GI50 [10]: > 100 µM (inactive)
GI50 [11]: > 100 µM (inactive)
GI50 [12]: > 100 µM (inactive)
GI50 [13]: 7.67 µM (inactive)
GI50 [14]: 2.6 µM (inactive)
GI50 [15]: 24.5 µM (inactive)
GI50 [16]: > 100 µM (inactive)
GI50 [17]: > 35.3 µM (inactive)
GI50 [18]: > 74.5 µM (inactive)
GI50 [19]: 4.06 µM (inactive)
GI50 [20]: > 100 µM (inactive)
GI50 [21]: > 95.9 µM (inactive)
GI50 [22]: 12.7 µM (inactive)
GI50 [23]: > 100 µM (inactive)
GI50 [24]: > 100 µM (inactive)
GI50 [25]: > 59.4 µM (inactive)
GI50 [26]: 18.4 µM (inactive)
GI50 [27]: 20 µM (inactive)
GI50 [28]: 5.57 µM (inactive)
GI50 [29]: 18.6 µM (inactive)
GI50 [30]: 13.5 µM (inactive)
GI50 [31]: > 56.5 µM (inactive)
GI50 [32]: 6.61 µM (inactive)
GI50 [33]: > 39.7 µM (inactive)
GI50 [34]: 44.6 µM (inactive)
GI50 [35]: < 0.01 µM (active)
GI50 [36]: > 100 µM (inactive)
GI50 [37]: 1.01 µM (active)
GI50 [38]: > 42.9 µM (inactive)
GI50 [39]: > 100 µM (inactive)
GI50 [40]: > 100 µM (inactive)
GI50 [41]: > 45.8 µM (inactive)
GI50 [42]: > 100 µM (inactive)
GI50 [43]: 9.38 µM (inactive)
GI50 [44]: 56.5 µM (inactive)
GI50 [45]: 13.7 µM (inactive)
GI50 [46]: 0.979 µM (active)
GI50 [47]: > 100 µM (inactive)
GI50 [48]: 61.2 µM (inactive)
GI50 [49]: > 100 µM (inactive)
GI50 [50]: 93.3 µM (inactive)
GI50 [51]: 16.7 µM (inactive)
GI50 [52]: > 100 µM (inactive)
GI50 [53]: 7.36 µM (inactive)

O=C(CSc1nnc(-c2ccc(/N=C\c3ccc(Cl)cc3)cc2)o1)Nc1ccccc1[N+](=O)[O-]
GI50 [2]: > 100 µM (inactive)
GI50 [54]: > 100 µM (inactive)
GI50 [3]: > 100 µM (inactive)
GI50 [4]: > 100 µM (inactive)
GI50 [5]: > 100 µM
GI50 [6]: > 100 µM (inactive)
GI50 [7]: > 100 µM (inactive)
GI50 [8]: > 100 µM (inactive)
GI50 [9]: > 100 µM (inactive)
GI50 [10]: > 100 µM (inactive)
GI50 [55]: > 100 µM (inactive)
GI50 [11]: > 100 µM (inactive)
GI50 [12]: > 100 µM (inactive)
GI50 [56]: > 100 µM (inactive)
GI50 [13]: > 100 µM (inactive)
GI50 [14]: > 100 µM (inactive)
GI50 [17]: > 100 µM (inactive)
GI50 [18]: > 100 µM (inactive)
GI50 [20]: > 100 µM (inactive)
GI50 [21]: > 100 µM (inactive)
GI50 [22]: > 100 µM (inactive)
GI50 [23]: > 100 µM (inactive)
GI50 [57]: > 100 µM (inactive)
GI50 [24]: > 100 µM (inactive)
GI50 [25]: > 100 µM (inactive)
GI50 [26]: > 100 µM (inactive)
GI50 [27]: > 100 µM (inactive)
GI50 [28]: > 100 µM (inactive)
GI50 [30]: > 100 µM (inactive)
GI50 [58]: > 100 µM (inactive)
GI50 [32]: > 100 µM (inactive)
GI50 [33]: > 100 µM (inactive)
GI50 [34]: > 100 µM (inactive)
GI50 [35]: > 100 µM (inactive)
GI50 [37]: > 100 µM (inactive)
GI50 [38]: > 100 µM (inactive)
GI50 [40]: > 100 µM (inactive)
GI50 [41]: 94.6 µM (inactive)
GI50 [42]: > 100 µM (inactive)
GI50 [43]: > 100 µM (inactive)
GI50 [44]: > 100 µM (inactive)
GI50 [45]: > 100 µM (inactive)
GI50 [46]: > 100 µM (inactive)
GI50 [47]: > 100 µM (inactive)
GI50 [48]: > 100 µM (inactive)
GI50 [49]: > 100 µM (inactive)
GI50 [59]: > 100 µM (inactive)
GI50 [60]: > 100 µM (inactive)
GI50 [53]: > 100 µM (inactive)

O=C(O)CCCCCOc1cccnc1/C=N/NC1=NCCN1
GI50 [2]: > 100 µM (inactive)
GI50 [54]: > 100 µM (inactive)
GI50 [3]: > 100 µM (inactive)
GI50 [4]: > 100 µM (inactive)
GI50 [5]: > 100 µM
GI50 [6]: > 100 µM (inactive)
GI50 [7]: > 100 µM (inactive)
GI50 [8]: > 100 µM (inactive)
GI50 [9]: > 100 µM (inactive)
GI50 [10]: > 100 µM (inactive)
GI50 [55]: > 100 µM (inactive)
GI50 [11]: > 100 µM (inactive)
GI50 [12]: > 100 µM (inactive)
GI50 [56]: > 100 µM (inactive)
GI50 [13]: > 100 µM (inactive)
GI50 [14]: > 100 µM (inactive)
GI50 [15]: > 100 µM (inactive)
GI50 [16]: > 100 µM (inactive)
GI50 [17]: > 100 µM (inactive)
GI50 [18]: > 100 µM (inactive)
GI50 [19]: 59.6 µM (inactive)
GI50 [20]: > 100 µM (inactive)
GI50 [21]: > 100 µM (inactive)
GI50 [22]: > 100 µM (inactive)
GI50 [23]: > 100 µM (inactive)
GI50 [57]: > 100 µM (inactive)
GI50 [24]: > 100 µM (inactive)
GI50 [25]: > 100 µM (inactive)
GI50 [26]: > 100 µM (inactive)
GI50 [27]: > 100 µM (inactive)
GI50 [28]: > 100 µM (inactive)
GI50 [29]: > 100 µM (inactive)
GI50 [30]: > 100 µM (inactive)
GI50 [31]: > 100 µM (inactive)
GI50 [58]: > 100 µM (inactive)
GI50 [32]: > 100 µM (inactive)
GI50 [33]: > 100 µM (inactive)
GI50 [34]: > 100 µM (inactive)
GI50 [35]: 91 µM (inactive)
GI50 [36]: > 100 µM (inactive)
GI50 [37]: > 100 µM (inactive)
GI50 [38]: > 100 µM (inactive)
GI50 [39]: > 100 µM (inactive)
GI50 [40]: > 100 µM (inactive)
GI50 [41]: > 100 µM (inactive)
GI50 [42]: > 100 µM (inactive)
GI50 [43]: > 100 µM (inactive)
GI50 [44]: > 100 µM (inactive)
GI50 [46]: > 100 µM (inactive)
GI50 [47]: > 100 µM (inactive)
GI50 [48]: > 100 µM (inactive)
GI50 [49]: 20.7 µM (inactive)
GI50 [59]: > 100 µM (inactive)
GI50 [50]: > 100 µM (inactive)
GI50 [52]: > 100 µM (inactive)
GI50 [60]: > 100 µM (inactive)
GI50 [53]: > 100 µM (inactive)
